In patent US12036197B2, “Composition for improving bioavailability of drugs” (priority 2019, dated 2024) one finds bioavailability data, which are given here for 3 compounds.

For data set [1] the following is noted: rat, in vivo.
Details of data set [2]: species or system SD rats. The conditions noted are these: rat, in vivo. The source says:
Laboratory Animals: Adult Male SD Rats.
The plasma was collected and subjected to quick freezing.

The nature of a further data set: in vivo. The note with it: male, SD, rat.

Molecules are shown by their SMILES. Where two headings read alike, the source gives them in different places. Where a SMILES comes first, the peptide text is derived from it. Bridges are numbered along the chain shown (N, C = ends). [ ]: non-standard residue; d: D form.

For the compound `CC[C@H](C)[C@H](NC(=O)[C@H](CO)NC(=O)[C@H](CCCCN)NC(=O)CNC(=O)[C@H](CCCCN)NC(=O)[C@H](CC(=O)O)NC(=O)[C@H](Cc1cnc[nH]1)NC(=O)[C@H](CC(C)C)NC(=O)[C@H](CC(C)C)NC(=O)[C@H](CCC(N)=O)NC(=O)[C@H](Cc1cnc[nH]1)NC(=O)[C@H](CCC(=O)O)NC(=O)[C@H](CO)NC(=O)[C@@H](NC(=O)[C@H](C)N)C(C)C)C(=O)N[C@@H](CCC(N)=O)C(=O)N[C@@H](CC(=O)O)C(=O)N[C@@H](CC(C)C)C(=O)N[C@@H](CCCNC(=N)N)C(=O)N[C@@H](CCCNC(=N)N)C(=O)N[C@@H](CCCNC(=N)N)C(=O)N[C@@H](CCC(=O)O)C(=O)N[C@@H](CC(C)C)C(=O)N[C@@H](CC(C)C)C(=O)N[C@@H](CCC(=O)O)C(=O)N[C@@H](CCCCN)C(=O)N[C@@H](CC(C)C)C(=O)N[C@@H](CC(C)C)C(=O)NC(C)(C)C(=O)N[C@@H](CCCCN)C(=O)N[C@@H](CC(C)C)C(=O)N[C@@H](Cc1cnc[nH]1)C(=O)N[C@H](C(=O)N[C@@H](C)C(N)=O)[C@@H](C)O` [Abaloparatide], the bioavailability in data set [1] is 1.66%.

Regarding `CC[C@H](C)[C@@H]1NC(=O)[C@H](CCCNC(=N)N)NC(=O)[C@H](CC(=O)O)NC(=O)[C@H](CCSC)NC(=O)[C@H](CCCCN)NC(=O)[C@H](CCCNC(=N)N)NC(=O)CNC(=O)[C@H](Cc2ccccc2)NC(=O)[C@@H](NC(=O)CNC(=O)[C@H](CO)NC(=O)CNC(=O)[C@H](CCC(N)=O)NC(=O)[C@@H](NC(=O)[C@H](CCSC)NC(=O)[C@H](CCCCN)NC(=O)[C@@H]2CCCN2C(=O)[C@@H](N)CO)C(C)C)CSSC[C@@H](C(=O)N[C@@H](CCCCN)C(=O)N[C@H](C(=O)N[C@@H](CC(C)C)C(=O)N[C@@H](CCCN=C(N)N)C(=O)N[C@@H](CCCN=C(N)N)C(=O)N[C@@H](Cc2cnc[nH]2)C(=O)O)C(C)C)NC(=O)CNC(=O)[C@H](CC(C)C)NC(=O)CNC(=O)[C@H](CO)NC(=O)[C@H](CO)NC(=O)[C@H](CO)NC(=O)[C@H](CO)NC1=O` [Nesiritide], in data set [2], the bioavailability was 1.22%.

Take `CC(C)[C@@H]1NC(=O)[C@H](CCCCN)NC(=O)[C@@H](Cc2c[nH]c3ccccc23)NC(=O)[C@H](Cc2ccc(O)cc2)NC(=O)[C@@H](NC(=O)[C@H](N)Cc2ccccc2)CSSC[C@@H](C(=O)N[C@@H](Cc2c[nH]c3ccccc23)C(N)=O)NC1=O` [Vapreotide] (H-[dF]CY[dW]KVCW-NH2; disulfide 2-7): the bioavailability in “in vivo” was 1.69%.

What is called bioavailability is the share of a dose that reaches the circulation, judged against a reference dose that is usually intravenous.
